One data set has as its target human EPO receptor. Nature of the data set: Erythropoietin surface binding assay on stable CHO lines expressing the human EPO receptor. The conditions noted are these: one hour at 37° C. Here is the method:
Confluent monolayers of MEL cells, grown in 60 mm bacteriophage petri dishes pre-coated with fibronectin, were prepared (Patel and Lodish, supra (1987)). Confluent monolayers of COS-1 cells, transfected by the DEAE dextran method 72 hours before the binding assay with either two micrograms of clone 190 cDNA in pXM or two micrograms of pXM without cDNA insert (mock-transfected) per monolayer, were prepared. Monolayers were washed at 4° C. with HBS/Hepes three times. Radioiodinated EPO (10 pM to 2nM range) was added to each monolayer in LBB. Incubations were performed at 4° C. for eight hours with gentle rocking. Monolayers were washed, solubilized, and counted in the gamma counter as described. Assays for nonspecific binding were performed in which the assay mixture contained a 100-fold excess 1(100 nM) of unlabeled erythropoietin. The radioactivity bound in the assays with excess unlabeled erythropoietin (nonspecific binding) was subtracted from the total binding to yield the specific binding. All binding assays were run in duplicate. The level of cell surface expression of the human EPO receptor was determined by the erythropoietin surface binding assay, described above for the expression of the murine EPO receptor in COS-1 cells, except that radioiodinated EPO, from 10 pM to 2 nM, was bound for one hour at 37° C. in the presence of 0.02% (w/v) sodium azide and 1% (v/v) aprotinin.

The conditions of data set [1]: purified, homogeneous erythropoietin; cited from earlier work.
Data set [2] has as its system EPO receptor on MEL cells. Nature of the data set: Erythropoietin surface binding assay on MEL cell monolayers. Also on record: species or system mouse. The following applies: single affinity; radioiodinated human EPO, 8 hours at 4° C.; read-out: affinity of MEL cell EPO-R for EPO. Here is the method:
FIG. 4 is a saturation curve showing the binding of iodinated EPO to MEL cells. Non-specific binding was determined by co-incubation with 100 nM of unlabeled EPO. The MEL cells were grown on fibronectin monolayers and were incubated with various concentrations of radioiodinated human EPO for eight hours at 4° C. The specific binding is shown as the difference between total and non-specific binding. The inset is a Scatchard plot of the same data. […] For these experiments, MEL cells, grown as monolayers on fibronectin coated dishes, were incubated for eight hours at 4° C. with ^125 I EPO. Specific binding and nonspecific binding of [^125 I]-EPO, measured in the presence of 100 nM unlabeled EPO was determined. Nonspecific binding was approximately half of the total (=specific plus nonspecific) binding. Because of the relatively low number of EPO-R on MEL cells and, therefore, the small specific binding observed at low concentrations of [^125 I-EPO], in the 10-50 pM range, it is not possible to rule out a high affinity EPO-R in this range. […] Monolayers were washed, solubilized, and counted in the gamma counter as described. […] The radioactivity bound in the assays with excess unlabeled erythropoietin (nonspecific binding) was subtracted from the total binding to yield the specific binding. […]

The target in a further data set is EPO receptor. The conditions noted are these: most cell surface binding studies; read-out: Kd, single class of binding sites; cited from earlier work.
The subject of data set [3] is recombinant murine EPO receptor expressed in COS cells. Nature of the data set: Erythropoietin surface binding assay on COS-EPO-R transfectants (clone 190). The arrangement: species or system mouse. Here is the method:
FIG. 5 is a saturation curve showing the binding of iodinated EPO to cells expressing recombinant EPO-receptors. COS-EPO-R transfectants were incubated with various concentrations of radioiodinated human EPO for eight hours at 4° C. Non-specific binding was determined by incubating radioiodinated EPO with COS-1 monolayers, mock treated with the pXM vector (without the EPO-R cDNA insert). Also, for comparison, one binding point was determined for [^125 I]-EPO binding to COS EPO-R transfectants in the presence of […] unlabeled EPO. The inset is a Scatchard plot of the same data. Binding was compared for COS transfectants expressing EPO-R (specific binding) versus COS cells mock-transfected with the pXM plasmid without the EPO-R cDNA insert (non-specific binding). At all EPO concentrations, specific binding was approximately […] the binding to mock-transfected cells. By the above criterion, over 85% of this binding is deemed specific, though the "non-specific" binding could represent low-affinity binding to the transfected EPO receptor. […] Confluent monolayers of MEL cells, grown in 60 mm bacteriophage petri dishes pre-coated with fibronectin, were prepared (Patel and Lodish, supra (1987)). Confluent monolayers of COS-1 cells, transfected by the DEAE dextran method 72 hours before the binding assay with either two micrograms of clone 190 cDNA in pXM or two micrograms of pXM without cDNA insert (mock-transfected) per monolayer, were prepared. Monolayers were washed at 4° C. with HBS/Hepes three times. Radioiodinated EPO (10 pM to 2nM range) was added to each monolayer in LBB. Incubations were performed at 4° C. for eight hours with gentle rocking. Monolayers were washed, solubilized, and counted in the gamma counter as described. Assays for nonspecific binding were performed in which the assay mixture contained a 100-fold excess 1(100 nM) of unlabeled erythropoietin. The radioactivity bound in the assays with excess unlabeled erythropoietin (nonspecific binding) was subtracted from the total binding to yield the specific binding. All binding assays were run in duplicate.

The target in data set [4] is EPO-responsive splenic erythroblasts. The conditions noted are these: FVA-injected mice, cited from earlier work.
The next data set relates to FDCPE cells. Kind of data set: Inhibition of the EPO response of FDCPE cells by secreted EPO receptor. Format: cell-based, mouse. The conditions noted are these: 0.4, 0.8 and 1 u/ml EPO; serial dilutions of CHO conditioned media (ca. 0.5 μg/ml secreted receptor). As to the method:
The FDCPE and 32DE cell lines were further characterized by their dose dependent response to EPO. A 96 well plate was seeded with 1×10^4 cells/well and incubated with EPO (0.0001 to 10 u/ml) for 24 hours and then labelled with [^3 H]-thymidine for 4hr, the cells were collected and counted for thymidine incorporation. The cells respond to EPO dose dependent manner from 0.01 to 1 u/ml.
FDCPE cells were incubated and assayed with either 0.4, 0.8 and 1 u/ml of EPO as described above but also with serial dilutions of media from a CHO line expressing the secreted EPO receptor (ca. 0.5 μg/ml).

Where two headings read alike, the source gives them in different places.

Regarding erythropoietin [EPO], the Kd was 0.126 nM on human EPO receptor (CHO cell line 9'.250, 34% of sites, Scatchard analysis, read-out: affinity for EPO, higher affinity sites); 0.66 nM on human EPO receptor (CHO cell line 9'.250, Scatchard analysis, read-out: affinity for EPO, remainder of sites); 3 nM at human EPO receptor (CHO cell line 10'.1.25, read-out: affinity for EPO, single affinity); ~0.24 nM in data set [2]; ~0.8 nM at EPO receptor; 0.03 nM in data set [3] (COS transfectants, Scatchard analysis, 8 hours at 4° C., read-out: dissociation constant, high affinity receptor). In addition, the Kd in data set [3] (COS transfectants, Scatchard analysis, 8 hours at 4° C., read-out: dissociation constant, low affinity receptor) was 0.21 nM; in data set [3] (cell type not stated, read-out: dissociation constant of the high affinity receptor), 0.05 nM; in data set [4] (read-out: dissociation constant, high affinity binding site), 0.1 nM; in data set [4] (read-out: dissociation constant, low affinity binding site) it was 0.8 nM. The specific activity result in data set [1] is “at least 160,000 IU per absorbance unit at 280 nanometers”.

B1: secreted EPO receptor: secreted human erythropoietin receptor lacking transmembrane and cytoplasmic domains, tested as conditioned media from a CHO line (protein, UniProt P19235 25-250, looked up)
extracellular domain: APPPNLPDPKFESKAALLAARGPEELLCFTERLEDLVCFWEEAASAGVGPGNYSFSYQLEDEPWKLCRLHQAPTARGAVRFWCSLPTADTSSFVPLELRVTAASGAPRYHRVIHINEVVLLDAPVGLVARLADESGHVVLRWLPPPETPMTSHIRYEVDVSAGNGAGSVQRVEILEGRTECVLSNLRGRTRYTFAVRARMAEPSFGGFWSAWSEPVSLLTPSDLDP
modifications: extracellular domain
notes: secreted human erythropoietin receptor lacking transmembrane and cytoplasmic domains, tested as conditioned media from a CHO line
For the molecule B1, the “inhibition of [3H]-thymidine incorporation into FDCPE cells” value in the data set on FDCPE cells was “inhibited the incorporation of [^3 H]-thymidine into the FDCPE cells”.
